Paper PMC10893357 (Viruses, 2024)
Entries after “also recorded” stand apart in the source; their conditions may differ.

biological target: T1, SARS-CoV-2 3CL^pro (Severe acute respiratory syndrome coronavirus 2, UniProt P0DTD1); assay: Kinetic parameters of 3CLpro reaction with inhibitor; type: biochemical; conditions: maximum reaction rate of 3CLpro with inhibitor at its IC50

Row | SMILES | Vmax
1 | CC(=O)C1=C(O)C=C2Oc3c(-c4csc(N/N=C/c5ccc(Br)s5)n4)c(O)c(C)c(O)c3[C@@]2(C)C1=O [(+)-3e] | 334.26 ± 39.08 nM/s

biological target: T1, SARS-CoV-2 3CL^pro; assay: SARS-CoV-2 3CLpro enzymatic inhibition assay (FRET peptide substrate); type: biochemical; conditions: not given

Row | SMILES | IC50 | activity against 3CLpro (in words)
2 | CC(=O)C1=C(O)C=C2Oc3c(-c4csc(N/N=C/c5cc(Br)cs5)n4)c(O)c(C)c(O)c3[C@]2(C)C1=O [(−)-3f] | 72.8 ± 9.55 µM | 
3 | CC(=O)C1=C(O)C=C2Oc3c(-c4csc(N/N=C/c5sccc5C)n4)c(O)c(C)c(O)c3[C@]2(C)C1=O [(−)-3c] | 48 ± 6.21 µM | 
4 | CC(=O)C1=C(O)C=C2Oc3c(-c4csc(N/N=C/c5cccs5)n4)c(O)c(C)c(O)c3[C@]2(C)C1=O [(−)-3b] | 40.4 ± 5.65 µM | 
5 | CC(=O)C1=C(O)C=C2Oc3c(C(C)=O)c(O)c(C)c(O)c3[C@@]2(C)C1=O [(+)-1, (R)-(+)-Usnic acid, reference compound] | > 200 µM | does not inhibit 3CL^pro
6 | CC(=O)C1=C(O)C=C2Oc3c(-c4csc(N/N=C/c5ccc(Br)s5)n4)c(O)c(C)c(O)c3[C@@]2(C)C1=O [(+)-3e] | 28.2 ± 1.41 µM | the highest but not strong activity
7 | CC(=O)C1=C(O)C=C2Oc3c(-c4csc(N/N=C/c5ccc(Br)s5)n4)c(O)c(C)c(O)c3[C@]2(C)C1=O [(−)-3e] | 85.8 ± 10.1 µM | almost three times less effectively
8 | CC(=O)C1=C(O)C=C2Oc3c(-c4csc(N/N=C/c5ccsc5)n4)c(O)c(C)c(O)c3[C@@]2(C)C1=O [(+)-3a] | 51 ± 6.33 µM | 
9 | CC(=O)C1=C(O)C=C2Oc3c(-c4csc(N/N=C/c5ccsc5)n4)c(O)c(C)c(O)c3[C@]2(C)C1=O [(−)-3a] | 41.6 ± 4.97 µM | 
10 | CC(=O)C1=C(O)C=C2Oc3c(-c4csc(N/N=C/c5ccc([N+](=O)[O-])s5)n4)c(O)c(C)c(O)c3[C@]2(C)C1=O [(−)-3g] | > 200 µM | showed no activity at all
11 | CC(=O)C1=C(O)C=C2Oc3c(-c4csc(N/N=C/c5sccc5C)n4)c(O)c(C)c(O)c3[C@@]2(C)C1=O [(+)-3c] | 34 ± 4.45 µM | 
12 | CC(=O)C1=C(O)C=C2Oc3c(-c4csc(N/N=C/c5cccs5)n4)c(O)c(C)c(O)c3[C@@]2(C)C1=O [(+)-3b] | 49.7 ± 6.12 µM | 
13 | CC(=O)C1=C(O)C=C2Oc3c(-c4csc(N/N=C/c5cc(Br)cs5)n4)c(O)c(C)c(O)c3[C@@]2(C)C1=O [(+)-3f] | 50.2 ± 6.75 µM | 
14 | CC(=O)C1=C(O)C=C2Oc3c(-c4csc(N/N=C/c5ccc(C)s5)n4)c(O)c(C)c(O)c3[C@]2(C)C1=O [(−)-3d] | 41 ± 5.89 µM | moderately inhibited the protease
15 | CC(=O)C1=C(O)C=C2Oc3c(-c4csc(N/N=C/c5ccc([N+](=O)[O-])s5)n4)c(O)c(C)c(O)c3[C@@]2(C)C1=O [(+)-3g] | > 200 µM | showed no activity at all; also recorded: did not show this activity
16 | CC(=O)C1=C(O)C=C2Oc3c(C(C)=O)c(O)c(C)c(O)c3[C@]2(C)C1=O [(−)-1, (S)-(−)-Usnic acid, reference compound] | > 200 µM | 
17 | CC(=O)C1=C(O)C=C2Oc3c(-c4csc(N/N=C/c5ccc(C)s5)n4)c(O)c(C)c(O)c3[C@@]2(C)C1=O [(+)-3d] | 40.7 ± 5.11 µM | moderately inhibited the protease
